Reference: patent US9907783B2, “Methods of treating skin conditions using cyclolignan compounds” (m. Alphabet 2, L.L.C., priority 2013, dated 2018)

System: actinic keratoses
Test: Randomized, blinded patient study of topical picropodophyllin solution for actinic keratoses (lesion count in treatment area)
Assay type: in vivo, patients
Settings: topical twice daily for 1 week
Experimental: To date, 56 patients have been studied to determine the efficacy of picropodophyllin in treating actinic keratoses. The patients were randomized into four groups, and the patients in each group were treated with a solution containing either 0.5%, 1.25%, or 2.0% picropodophyllin (w/v) in propylene glycol, or a placebo constituting only the vehicle propylene glycol. The picropodophyllin solution was prepared in 100% propylene glycol solution. The solutions were prepared aseptically following GMP protocols. The affected areas of the body variously included the scalp, face, arms, and legs. Without knowing which one of the four solutions they were applying, the subjects self-applied one of the solutions to the skin. After initial application, the subjects gently massaged the solutions into their skin. This was done twice daily for 1 week. Lesions (actinic keratosis) were palpated and visualized by a trained lesion counter who is a board certified dermatologist. The same investigator evaluated each subject at each visit for consistency. The subjects were evaluated at baseline, day 3, day 7, day 14, day 28, day 56 and day 90. Within the treatment area, the number of lesions were counted, regardless of their size. The change in the number of lesions (% decline from baseline) within the treatment area was calculated and the results are shown in the table below: […]

For `COc1cc([C@@H]2c3cc4c(cc3[C@H](O)[C@H]3COC(=O)[C@@H]23)OCO4)cc(OC)c1OC` [PPP, picropodophyllin], the “% Decline from Baseline (number of lesions in treatment area)” value (shortened to “% Decline from Baseline”) (0.50% PPP w/v in propylene glycol, 28 days) was −56^AB %, the “% Decline from Baseline” value (0.50% PPP w/v in propylene glycol, 56 days) was −82^AB % and the “% Decline from Baseline” value (0.50% PPP w/v in propylene glycol, 90 days) was −90^AB %. The “% Decline from Baseline” value (1.25% PPP w/v in propylene glycol, 28 days) was −53^AB %, the “% Decline from Baseline” value (1.25% PPP w/v in propylene glycol, 56 days) was −73^AB % and the “% Decline from Baseline” value (1.25% PPP w/v in propylene glycol, 90 days) was −65^AB %. The “% Decline from Baseline” value (2.00% PPP w/v in propylene glycol, 28 days) was −17%, the “% Decline from Baseline” value (2.00% PPP w/v in propylene glycol, 56 days) was −55^AB % and the “% Decline from Baseline” value (2.00% PPP w/v in propylene glycol, 90 days) was −84^AB %.
